The structures appear in SMILES notation.

Turning to `O=C1N(Cc2ccc3nonc3c2)c2ccccc2C12COc1cc3c(cc12)CCO3` (configuration not stated), the melting point lay within 169 to 171 °C. `CS(=O)c1ccc(-c2ccc(-c3ccc(F)cc3)s2)s1` (configuration not stated): the melting point lay within 153 to 157 °C.

`CC(=O)Oc1ccc(-c2ccc(O)cc2)cc1` came in with a melting point of 204 to 207 °C. `CCC1CC(=O)N(Cc2cccc(NC(C)=O)c2)N=C1c1ccc(OC)c(OC)c1` (configuration not stated) returned a melting point of 142 °C. To `COc1cc(C=CC(=O)Nc2cnc3ccccc3c2-c2ccccc2Cl)cc(OC)c1OC(C)=O` belongs 237 to 238 °C. For `CS(=O)(=O)c1ccc(-c2cnn(-c3ccc(F)c(F)c3)c(=O)c2OCCC2CCCC2)cc1`, the melting point lay within 100 to 101 °C. In the case of `O=c1c2c(Cc3ccc(C(F)(F)F)cc3)n[nH]c2c2cccnc2n1-c1cccc(OC(F)(F)F)c1`, the melting point lay within 227 to 231 °C. Take `COc1ccc(C2=C(c3ccc(S(C)(=O)=O)cc3)CCC2)cc1`: the melting point fell in the range of 129 to 130 °C. With `CC(Oc1ccc(Oc2ncc(Cl)cc2N)cc1)C(=O)O` (configuration not stated) the figure was 152 to 154 °C; with `O=C(C=Cc1ccc2c(c1)OCO2)c1cccc(OCCCCBr)c1`, 97 to 98 °C. Regarding `COC(=O)c1ccc(=O)n(CCNC(=O)c2cc(Cl)ccc2OC)c1`, the melting point lay within 149 to 150 °C. Molecule `CC(C)(C)c1ccccc1COc1ccc(N)nn1` came in with a melting point of 147 to 149 °C. Regarding `O=C(O)C1CCCCN1CC=CP(=O)(O)O` (configuration not stated), the melting point was 163 to 165 °C. `CC(C)OC(=O)C1=C(c2ccccc2)C(c2ccccc2)OC1=O` (configuration not stated) yielded a melting point of 120 to 122 °C. Molecule `N#Cc1cccnc1NCc1nc2ccc(F)cc2c(=O)n1-c1ccccc1Cl` came in with a melting point of 145 to 150 °C. As to `CCc1nc2c(C)cc(C)nc2n1Cc1ccc(-c2ccccc2-c2c(O)c(=O)c2=O)cc1`, the melting point was 245 to 247 °C. Take `COc1cc2c(cc1OC)/C(=N/OCc1ccc([N+](=O)[O-])cc1)CC2`: the melting point lay in the range of 139 to 144 °C. To `C1COCCNCCSCCN1` belongs 74 to 76 °C; to `CCOP(=O)(O)COCCn1cnc2c(=O)[nH]c(N)nc21`, 192 to 194 °C; to `CCOC(=O)C1=C(C)NC(CCN(C)C)=C(C(=O)OCC)C1c1ccccc1/C=C(\C)C(=O)OCC` (configuration not stated), 109 °C.

With `Cc1c(C(=O)N[C@@H]2CN3CCC2CC3)c2ccccc2n1C`, the melting point fell in the range of 176 to 177 °C. For `O=S1(=O)N[C@@H](c2ccccc2)c2ccccc21`, the melting point came to 139 °C.

Molecule `Cc1cn(C(C)(C)C(=O)N(C)C)nc1-c1ccc(Cl)cc1Cl` had a melting point of 110 to 111 °C. With `CCOC(=O)c1nc(C2CCCCC2)n(-c2cccc(Cl)c2F)c1Br`, the melting point is 150 to 152 °C. In the case of `COC(=O)c1ccccc1-c1ccc(C)cc1`, the melting point fell in the range of 119 to 121 °C. Molecule `O=C(Cn1nc2ccccc2n1)Nc1ccc(-n2nc(C(F)(F)F)cc2C2CC2)nc1` yielded a melting point of 193 to 198 °C.

In the case of `CSc1ccc2c(C(=O)C(F)(F)F)c[nH]c2c1`, the melting point is 237 to 239 °C. `CCN(CCc1coc2c(OC)cccc12)C1COc2c(F)ccc(C(N)=O)c2C1` (configuration not stated) yielded a melting point of 124 to 132 °C. `CC(=O)Oc1cc2c(s1)C(N1CCCC1=O)CC(C)(C)O2` (configuration not stated) had a melting point of 92 to 93 °C. Take `CCC(Oc1ccccc1C(C)(C)C)C(=O)OC1CC(O)C=C2C=CC(C)C(CCC3CC(O)CC(=O)O3)C21` (mixture of isomers): the melting point was 176 to 178 °C. The molecule `O=C1c2ccccc2C(=O)N1Cc1cnc(Cl)s1` yielded a melting point of 108 to 109 °C.

For the molecule `CS(=O)(=O)OCCCc1ccc(SCc2coc(/C=C/c3ccccc3)n2)cc1`, the melting point is 97 to 98 °C. For `COC(=O)c1c(OC)cc(N(C)C)nc1C`, the melting point was 65 to 66 °C. Take `CC1(C)N(C=O)CC(=O)N1CC(N)=O`: the melting point lay in the range of 211 to 213 °C.

Take `Cc1c(CC(=O)N(C)C)oc2ccc(F)cc12`: the melting point was in the range of 88 to 90 °C. The molecule `C=C(C)CC(O)(C(Nc1cccc2nc(C)ncc12)c1ccc(Cl)cc1OC)C(F)(F)F` (configuration not stated) showed a melting point of 193 °C.

With `FC(F)(F)Oc1ccc2cnn(SC(Cl)(Cl)Cl)c2c1`, the melting point was 45 °C.

Molecule `CC(=O)N(C)c1cc2c(nc(C)n2C)c(O)c1CCC(=O)c1ccccc1` gave a melting point of 249 to 251 °C. As to `CCCn1cc(Cc2ccc(C(=O)NS(=O)(=O)c3ccccc3Cl)cc2OC)c2cc(CCC(C)C(=O)N(C)C)ccc21` (configuration not stated), the melting point lay in the range of 95 to 98 °C. For the molecule `O=c1[nH]c2ncc(-c3ccc(O)cc3)nc2n1CC1CCCC1`, the melting point lay in the range of 296 to 297 °C. The molecule `CC(C)(C)OC(=O)NNCc1cccc(C#N)c1` came in with a melting point of 75 to 80 °C.

The molecule `CN1c2cccc(CC(=O)O)c2Sc2c(C(N)C(=O)OCC3c4ccccc4-c4ccccc43)cccc21` (configuration not stated) registered a melting point of 217 to 219 °C.

Take `O=C(O)c1cccc(-c2ccc3c(c2)C(Oc2ccc(Cl)cc2Cl)CCC3)c1` (configuration not stated): the melting point lay within 176 to 181 °C. With `Cc1cc(OCC2CO2)c2cc(C(=O)N(C)C)[nH]c2c1` (configuration not stated) the figure was 197 to 204 °C.

`COc1cc(OC)nc(NC(=O)NS(=O)(=O)c2ccccc2C2CO2)n1` (configuration not stated) displayed a melting point of 177 to 179 °C. To `CC(C)c1ccc(N(Cc2ccc(O)cc2)C(=O)C2CCCc3ccccc32)cc1` (configuration not stated) belongs 156 °C. For `O=C=NC(=O)CS(=O)(=O)c1ccc(Cl)cc1`, the melting point lay within 58 to 60 °C. Regarding `O=C(O)Cc1c(C(=O)O)c2cc(Oc3cc(Cl)cc(Cl)c3)ccc2n1-c1ccc(OC(F)(F)F)cc1`, the melting point fell in the range of 219 to 223 °C. In turn, `CC(C)(COCc1cccc(Oc2ccccc2)c1)c1ccccc1C(=O)O` yielded a melting point of 98.5 to 102 °C. In the case of `CC(C)(C)OC(=O)N1CCC(c2cc(F)ccc2F)(S(=O)(=O)c2ccc(Cl)cc2)CC1`, the melting point lay within 101 to 106 °C. For the molecule `CCCCOc1ccc(S(=O)(=O)C2(C(=O)NO)CCN(Cc3cccc(OC)c3)CC2)cc1`, the melting point is 137 °C. With `COC1(c2cc(OCc3ccc4c(c3)OCCC4=NO)nc(N)n2)CCOCC1` the figure was 224 to 228 °C; with `CC(C)(C)OC(=O)NN(Cc1ccccc1)C[C@H](O)[C@H](Cc1ccccc1)NC(=O)OCc1ccccc1`, 142 to 143 °C; with `COc1ccc2c(c1OC)C1=NCCN1C1C(c3ccccc3)CCN21` (configuration not stated), 171 °C. In turn, `CCCCc1nc2c(N)nc3ccc(OCC(=O)N(CCOC)CCOC)cc3c2n1C` showed a melting point of 125 to 128 °C.

`CNc1cc(NS(=O)(=O)c2ccc(Cl)cc2)nc(NC)n1` registered a melting point of 272 to 273 °C. `CNC(=S)[C@]1(c2cccnc2)CCCC[C@H]1NOCc1c(F)c(F)c(F)c(F)c1F` yielded a melting point of 57 to 60 °C. Regarding `O=C1C=CC2=C(C1CC1CC1)n1ccc3c1=C(CCC=3)c1nncn12` (configuration not stated), the melting point is 99 °C. The molecule `COc1ccccc1C(=O)NN=C(CC(C)C)c1ccncc1` came in with a melting point of 130 °C. Turning to `CCOc1cc2cc(CO)c(CO)c(-c3ccnc(Br)c3)c2cc1OC`, the melting point was 156 to 157 °C. With `O=C1Nc2ccc(I)cc2C1=NNC(=O)C1CCN(C(=O)c2ccccc2)CC1` the figure was 160 °C; with `N#CCCN(N)c1nc2cccc(Cl)c2o1`, 114 to 115 °C; with `CCO/C(=N/O)C1Cc2cc(C(C)=O)c(O)c(Cl)c2O1` (configuration not stated), 154 to 155 °C. With `CCOC(=O)COc1ccc(C(=O)CN2CCN(c3ccncc3)CC2=O)cc1` the figure was 163 to 165 °C; with `Cc1cccc(C2(O)CCC(=O)N2C)c1` (configuration not stated), 128 to 130 °C. To `Cc1ccccc1C(=O)N[C@@H]1CCc2cccc(N3CCN(C)CC3)c2C1` belongs 179 to 180 °C; to `CCOC(=O)C1=C(C)NC(=S)N(C(=O)OCC)C1c1ccccc1[N+](=O)[O-]` (configuration not stated), 130 to 132 °C; to `CCCSc1ccc(Oc2ccc(Cl)c(Cl)c2)nc1C#N`, 67 to 69 °C. Molecule `CCC1Cc2cc(OCCCC(=O)O)c(Cl)c(Cl)c2C1=O` (configuration not stated) gave a melting point of 146 to 148 °C.

With `COc1cc2ncc(C#N)c(Nc3ccc(F)c(Cl)c3)c2cc1NC(=O)C=CCN(C)OC`, the melting point lay within 210 to 217 °C. `CCOC(OCC)N1C(=O)OC(C)(C)c2cc(-c3cc(F)cc(C#N)c3)ccc21`: the melting point lay in the range of 123 to 124 °C. As to `COc1ccc(NC(=O)c2ccc([N+](=O)[O-])cc2)c(OC)c1`, the melting point was in the range of 172 to 174 °C.

For the molecule `CN(Cc1ccccc1)C(=O)/C=C/c1cc(Cl)cnc1N`, the melting point is 106 to 109 °C. As for `CC(=O)Nc1ccc(C(=O)C=CC(=O)O)cc1`, the melting point was 206 to 207 °C. With `O=C(O)Cc1ccc(-n2cc(F)cn2)c(Cl)c1` the figure was 110 to 112 °C; with `O=C(Nc1cc(CO)cc(Nc2c3ccccc3nc3ccccc23)c1)Oc1ccc(N(CCCl)CCCl)cc1`, 241 to 242 °C; with `COc1ccc(CN2C(=O)CC2CC(=O)O)c(OC)c1` (configuration not stated), 90 to 91 °C. `COc1cccc([C@@H]2CC[C@H](c3cccc(O)c3)N2C(=O)CNC(=O)Nc2cccc(C(=O)O)c2)c1` (relative stereo) returned a melting point of 172 °C. With `CCCc1c(C#N)c(-c2ccc(C#N)cc2)c(C)n1Cc1cnc(Cl)c(CO)c1`, the melting point was 137 to 138 °C. The molecule `CCOc1cccc2c1c(=O)n(C)c1c(-c3noc(C4CC4)n3)ncn21` displayed a melting point of 195 to 205 °C. For the molecule `Cc1cc2c(cc1S(=O)(=O)N1CCOCC1)S(=O)(=O)NC(C1CCCCC1)N2` (configuration not stated), the melting point fell in the range of 268 to 271 °C. `CCn1nnnc1Cc1ccc(N)cc1` displayed a melting point of 94 to 95 °C.

In the case of `CCCc1nc2c(N)nc3ccccc3c2n1CCCCCCCCCCCC(=O)NC`, the melting point lay in the range of 135 to 137 °C. As for `CC(C)Oc1cccc(-n2c(NN)nc3ccccc3c2=O)c1`, the melting point is 158 to 160 °C. As for `CCOC(=O)CCc1cccc(NC(=O)c2cc(-c3ccc(C(F)(F)F)cc3)oc2C)c1`, the melting point was in the range of 134 to 135 °C.

`CCCCc1ccc(OC)c(-c2csc(NC(=O)c3ccc(C(=O)N4CCC(N5CCC(NS(C)(=O)=O)C5)CC4)cc3)n2)c1` (configuration not stated) gave a melting point of 125 °C. In the case of `Cc1c(C(=O)O)ccc(S(C)(=O)=O)c1N`, the melting point is 197 to 198 °C.

What is called melting point is the temperature, or range, at which the solid turns liquid.
